Where two headings read alike, the source gives them in different places.
Target: CFTR (Homo sapiens, UniProt P13569)
Assay: Membrane potential dye, Enteroid Assay A
Format: cell-based
Settings: for Ent. A Max Activity: chloride transport as % of triple combination control (Enteroid Assay A); for EC50: human enteroid cells, 18-24 hours, acute 10 μM forskolin and 300 nM ivacaftor, read-out: Ent. A EC50
Procedure: Base medium (ADF+++) consisted of Advanced DMEM/Ham's F12, 2 mM Glutamax, 10 mM HEPES, […] penicillin/streptomycin.
Intestinal enteroid maintenance medium (IEMM) consisted of ADF+++, 1× B27 supplement, 1× N2 supplement, 1.25 mM N-acetyl cysteine, 10 mM Nicotinamide, 50 ng/mL hEGF, 10 nM Gastrin, 1 μg/mL hR-spondin-1, 100 ng/mL hNoggin, TGF-b type 1 inhibitor A-83-01, 100 μg/mL Primocin, 10 μM P38 MAPK inhibitor SB202190.
Bath 1 Buffer consisted of 1 mM MgCl2, 160 mM NaCl, 4.5 mM KCl, 10 mM HEPES, 10 mM Glucose, 2 mM CaCl2).
Chloride Free Buffer consisted of 1 mM Magnesium Gluconate, 2 mM Calcium Gluconate, 4.5 mM Potassium Gluconate, 160 mM Sodium Gluconate, 10 mM HEPES, 10 mM Glucose.
BathI Dye Solution consisted of Bath 1 Buffer, 0.04% Pluronic F127, 20 μM Methyl Oxonol, 30 μM CaCCinh-A01, 30 μM Chicago Sky Blue.
Chloride Free Dye Solution consisted of Chloride Free Buffer, 0.04% Pluronic F127, 20 μM Methyl Oxonol, 30 μM CaCCinh-A01, 30 μM Chicago Sky Blue.
Chloride Free Dye Stimulation Solution consisted of Chloride Free Dye Solution, 10 μM forskolin, 100 μM IBMX, and 300 nM Compound III.
Human intestinal epithelial enteroid cells were obtained from the Hubrecht Institute for Developmental Biology and Stem Cell Research, Utrecht, The Netherlands and expanded in T-Flasks as previously described (Dekkers J F, Wiegerinck C L, de Jonge H R, Bronsveld I, Janssens H M, de Winter-de Groot K M, Brandsma A M, de Jong N W M, Bijvelds M J C, Scholte B J, Nieuwenhuis E E S, van den Brink S, Clevers H, van der Ent C K, Middendorp S and M Beekman J M. A functional CFTR assay using primary cystic fibrosis intestinal organoids. Nat Med. 2013 July;19(7):939-45.).
3. Enteroid Cell Harvesting and Seeding
Cells were recovered in cell recovery solution, collected by centrifugation at 650 rpm for 5 min at 4° C., resuspended in TrypLE and incubated for 5 min at 37° C. Cells were then collected by centrifugation at 650 rpm for 5 min at 4° C. and resuspended in IEMM containing 10 μM ROCK inhibitor (RI). The cell suspension was passed through a 40 μm cell strainer and resuspended at 1×10^6 cells/mL in IEMM containing 10 μM RI. Cells were seeded at 5000 cells/well into multi-well plates and incubated for overnight at 37° C., 95% humidity and 5% CO2 prior to assay.
4. Membrane Potential Dye, Enteroid Assay A
Enteroid cells were incubated with test compound in IEMM for 18-24 hours at 37° C., 95% humidity and 5% CO2. […] Briefly, cells were washed 5 times in Bath 1 Buffer. Bath 1 Dye Solution was added, and the cells were incubated for 25 min at room temperature. Following dye incubation, cells were washed 3 times in Chloride Free Dye Solution. Chloride transport was initiated by addition of Chloride Free Dye Stimulation Solution and the fluorescence signal was read for 15 min. […] Chloride transport was then expressed as a percentage of the chloride transport following treatment with 3 μM N-[(6-amino-2-pyridyl)sulfonyl]-6-(3-fluoro-5-isobutoxy-phenyl)-2-[(4S)-2,2,4-trimethylpyrrolidin-1-yl]pyridine-3-carboxamide, 3 μM (R)-1-(2,2-difluorobenzo[d][1,3]dioxol-5-yl)-N-(1-(2,3-dihydroxypropyl)-6-fluoro-2-(1-hydroxy-2-methylpropan-2-yl)-1H-indol-5-yl)cyclopropanecarboxamide and 300 nM acute N-[2,4-bis(1,1-dimethylethyl)-5-hydroxyphenyl]-1,4-dihydro-4-oxoquinoline-3-carboxamide triple combination control (% Activity).

Sequence of CFTR (P13569 with tags, fused parts or gaps DEL508-508): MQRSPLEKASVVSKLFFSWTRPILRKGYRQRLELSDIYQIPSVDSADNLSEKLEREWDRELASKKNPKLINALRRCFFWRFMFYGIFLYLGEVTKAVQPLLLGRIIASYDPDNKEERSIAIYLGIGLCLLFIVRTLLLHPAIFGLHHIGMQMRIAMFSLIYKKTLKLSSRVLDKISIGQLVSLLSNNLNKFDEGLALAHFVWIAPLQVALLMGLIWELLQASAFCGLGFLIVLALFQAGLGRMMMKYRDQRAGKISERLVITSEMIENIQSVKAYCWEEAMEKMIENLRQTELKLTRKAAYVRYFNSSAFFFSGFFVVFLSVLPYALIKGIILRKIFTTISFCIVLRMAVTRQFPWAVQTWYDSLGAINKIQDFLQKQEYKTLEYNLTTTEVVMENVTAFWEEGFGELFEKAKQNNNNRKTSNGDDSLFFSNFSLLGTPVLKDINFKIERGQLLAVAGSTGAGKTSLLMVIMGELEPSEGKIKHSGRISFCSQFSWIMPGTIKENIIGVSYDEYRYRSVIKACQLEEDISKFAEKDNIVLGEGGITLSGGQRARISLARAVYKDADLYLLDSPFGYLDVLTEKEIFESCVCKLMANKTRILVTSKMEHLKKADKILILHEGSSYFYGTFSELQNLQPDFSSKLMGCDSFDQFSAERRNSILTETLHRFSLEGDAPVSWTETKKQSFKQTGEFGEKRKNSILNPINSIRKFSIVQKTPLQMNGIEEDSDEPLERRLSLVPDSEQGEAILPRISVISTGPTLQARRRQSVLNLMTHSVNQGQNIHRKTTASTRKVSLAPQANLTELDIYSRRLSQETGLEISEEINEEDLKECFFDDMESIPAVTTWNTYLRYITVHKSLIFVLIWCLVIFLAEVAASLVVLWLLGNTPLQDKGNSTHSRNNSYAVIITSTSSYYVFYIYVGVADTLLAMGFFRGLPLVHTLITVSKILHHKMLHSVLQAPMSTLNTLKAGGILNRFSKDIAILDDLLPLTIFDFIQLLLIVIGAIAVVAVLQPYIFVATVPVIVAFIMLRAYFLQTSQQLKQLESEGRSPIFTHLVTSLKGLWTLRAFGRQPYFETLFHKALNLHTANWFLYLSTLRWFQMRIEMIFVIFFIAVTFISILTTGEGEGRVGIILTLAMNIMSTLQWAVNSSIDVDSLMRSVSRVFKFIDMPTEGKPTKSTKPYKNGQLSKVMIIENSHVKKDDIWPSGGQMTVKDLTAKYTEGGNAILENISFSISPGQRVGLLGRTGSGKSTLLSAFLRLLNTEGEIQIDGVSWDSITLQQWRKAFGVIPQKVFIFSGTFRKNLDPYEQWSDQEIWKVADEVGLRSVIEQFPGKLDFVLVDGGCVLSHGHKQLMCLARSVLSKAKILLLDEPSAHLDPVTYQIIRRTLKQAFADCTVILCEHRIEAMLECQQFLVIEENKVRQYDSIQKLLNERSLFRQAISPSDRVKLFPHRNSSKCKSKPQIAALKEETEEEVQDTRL

Row | Ent. A Max Activity (Table 7) | EC50 (Table 7) | Ent. A Max Activity (Table 6) | EC50 (Table 6) | Compound
1 | ++ (++ is 30-60%) |  |  |  | CCCC(=O)N1Cc2cccc(c2)S(=O)(=O)Nc2nc(cc(-c3c(C)cccc3C)n2)OC[C@H]1CC(C)C [Compound 1052]
2 | +++ (+++ is >60%) | < 1000 nM |  |  | Cc1cccc(C)c1-c1cc2nc(n1)NS(=O)(=O)c1cccc(c1)C(=O)N(Cc1ccc(C(=O)N(C)C)nc1)[C@H](CC(C)C)CO2 [Compound 981]
3 |  |  | +++ (+++ is >60%) | < 1000 nM | Cc1cccc(C)c1-c1cc2nc(n1)NS(=O)(=O)c1cccc(c1)C(=O)N(Cc1cc3n(n1)CCNC3=O)[C@H](CC(C)C)CO2 [Compound 41, (11R)-6-(2,6-dimethylphenyl)-11-isobutyl-2,2-dioxo-12-[(4-oxo-6,7-dihydro-5H-pyrazolo[1,5-a]pyrazin-2-yl)methyl]-9-oxa-2λ^6-thia-3,5,12,19-tetrazatricyclo[12.3.1.14,8]nonadeca-1(18),4(19),5,7,14,16-hexaen-13-one]
4 |  |  | +++ (+++ is >60%) | < 1000 nM | Cc1cccc(C)c1-c1cc2nc(n1)NS(=O)(=O)c1cccc(c1)C(=O)N(Cc1ccc(N3CCN(C)CC3)cc1)[C@H](CC(C)C)CO2 [Compound 856]
5 |  |  | +++ (+++ is >60%) | < 1000 nM | Cc1cccc(C)c1-c1cc2nc(n1)NS(=O)(=O)c1cccc(c1)C(=O)N(Cc1ccc(N3CCOCC3)nc1)[C@H](CC(C)C)CO2 [Compound 976]
6 | + (+ is <30%) | 3000 to 30000 nM |  |  | Cc1cccc(C)c1-c1cc2nc(n1)NS(=O)(=O)c1cccc(c1)C(=O)N(C)C[C@H](c1cccc(C(C)(C)C)c1)O2 (single isomer, unassigned) [Compound 15, 10-(3-tert-butylphenyl)-6-(2,6-dimethylphenyl)-12-methyl-2,2-dioxo-9-oxa-2λ^6-thia-3,5,12,19-tetrazatricyclo[12.3.1.14,8]nonadeca-1(18),4(19),5,7,14,16-hexaen-13-one]
7 | ++ (++ is 30-60%) | < 1000 nM |  |  | COc1ccc(CN2C(=O)c3cccc(c3)S(=O)(=O)Nc3nc(cc(-c4c(C)cccc4C)n3)OC[C@H]2CC2(C(F)(F)F)CC2)cc1 [Compound 678]
8 | +++ (+++ is >60%) | < 1000 nM |  |  | Cc1cccc(C)c1-c1cc2nc(n1)NS(=O)(=O)c1cccc(c1)C(=O)N(C)C[C@H](c1ccc(-c3ccc(C(C)(C)C)cc3)cn1)O2 [Compound 510]
9 |  |  | +++ (+++ is >60%) | < 1000 nM | COc1ccnc(CN2C(=O)c3cccc(c3)S(=O)(=O)Nc3nc(cc(-c4c(C)cccc4C)n3)OC[C@H]2CC(C)C)c1 [Compound 82, (11R)-6-(2,6-Dimethylphenyl)-11-isobutyl-12-[(4-methoxy-2-pyridyl)methyl]-2,2-dioxo-9-oxa-2λ^6-thia-3,5,12,19-tetrazatricyclo[12.3.1.14,8]nonadeca-1(18),4(19),5,7,14,16-hexaen-13-one]
10 |  |  | +++ (+++ is >60%) | < 1000 nM | Cc1cccc(C)c1-c1cc2nc(n1)NS(=O)(=O)c1cccc(c1)C(=O)N(CC(O)CO)[C@H](CC(C)C)CO2 (stereo in doubt) [Compound 39, (11R)-12-[(2S)-2,3-Dihydroxypropyl]-6-(2,6-dimethylphenyl)-11-(2-methylpropyl)-9-oxa-2λ^6-thia-3,5,12,19-tetraazatricyclo[12.3.1.14,8]nonadeca-1(17),4(19),5,7,14(18),15-hexaene-2,2,13-trione]
11 | +++ (+++ is >60%) | < 1000 nM |  |  | Cc1cccc(C)c1-c1cc2nc(n1)NS(=O)(=O)c1cccc(c1)C(=O)N(C)[C@H](c1ccc(C(C)(C)C)cc1)CO2 [Compound 1011]
12 |  |  | +++ (+++ is >60%) | < 1000 nM | COCCOCCN1C(=O)c2cccc(c2)S(=O)(=O)Nc2nc(cc(-c3c(C)cccc3C)n2)OC[C@H]1CC(C)C [Compound 424]
13 | +++ (+++ is >60%) | < 1000 nM |  |  | Cc1cccc(C)c1-c1cc2nc(n1)NS(=O)(=O)c1cccc(c1)C(=O)N(Cc1ccc(NC[C@@H](O)CO)nc1)[C@H](CC(C)C)CO2 [Compound 947]

Reference: patent US20240150377A1, “MODULATORS OF CYSTIC FIBROSIS TRANSMEMBRANE CONDUCTANCE REGULATOR” (VERTEX PHARMACEUTICALS INCORPORATED, priority 2020, published 2024)
